Assay results reported in patent publication US20240383875A1, “Benzimidazole Pyridine Derivatives” (Hoffmann-La Roche Inc., priority 2022, published 2024).

How the values were obtained:
Format in all cases: biochemical
SIK3 = SIK3 (Homo sapiens, UniProt Q9Y2K2); experiment: Enzymatic activity assay SIK3, RapidFire mass spectrometry (phosphorylation of CHK-peptide); settings: RapidFire MS, inhibition of SIK3; read-out: SIK3 RF IC50
Procedure: (§1) Assay description SIK1-3, RapidFire:
(§2) In the presence of SIK2 (resp. SIK1 or SIK3) and ATP the CHK-peptide ([…] with C-terminal arginine amide modification) were phosphorylated at one of the four feasible serine's. Only one phosphorylation is observed under the assay conditions. 60 nl of each compound dilution series (12 point; dilution factor 3, generally 30 μM to 170 pM) in DMSO were transferred by acoustic dispensing to the assay plate and 30 min pre-incubated (ambient temperature) after the addition of 5 μl SIK1 (5 nM) resp. 5 μl SIK2 (0.5 nM) or 7 μl SIK3 (1.5 nM) in assay-buffer (12.5 mM HEPES (pH 7.0), 10 mM magnesium acetate, 0.005% BSA). 10 μM CHK-peptide solution and 5 μl 100 μM ATP for SIK1 & SIK2 resp. 3 μl for SIK3 in assay-buffer were added and incubated ambient for 45 min. 40 μl 0.125% formic acid in water were added to quench the reaction. RapidFire (RF) Mass Spectrometry was utilized for data generation as described below. The multiple charged species (3-5 charges) for the phosphorylated and non-phosphorylated form measured by MRM (Multiple Reaction Monitoring; API5000 or 6500+) or EIC (Extracted Ion Current; QToF) were summed up and the ratio calculated (sum phosphorylated species/sum all species) for data evaluation. Normalization was performed by Genedata software based on the non-inhibition control DMSO and the commercially available SIK inhibitor @ 1 μM YKL-05-099 (CAS number 1936529-65-5). The results of the assay are expressed in half-maximal inhibitory concentrations (IC50s) and are summarized below in Table 1.
(§3) Samples were aspirated by vacuum for max. 600 ms and loaded to C4-cartridge (Agilent; #G9203A) for 3000 ms@1.5 ml/min with 0.1% formic acid in water. Afterwards samples were transferred to the APT5000 (APT6500+) or QToF mass spectrometer for 4000 ms@1.25 ml/min with 90% acetonitrile; 10% water; 0.007% TFA; 0.093 formic acid. The cartridge was reconditioned for additional 500 ms with 0.1% formic acid in water
(§4) All MS analyses using the following MS-setup in MRM mode: Electrospray positive; Ion Spray Voltage: 4000V; Temperature: 550° C.; Collision Gas: 5; Curtain Gas: 15; Gas1: 40; Gas 2: 42; EP: 10
(§5) MS-Setup Agilent QToF 6545
(§6) All MS analyses using the following MS-setup in Mode MS: Dual AJS Electrospray positive; VCap: 3000V; Drying & Sheath gas: 340° C.@81/min; Nebulizer: 60 psig; Nozzle Voltage: 2000V; Fragmentor: 130V; Skimmer: 35V; Oct1 RF Vpp: 700V; Ref masses on@5spectra/s

SIK2 = SIK2 (Homo sapiens, UniProt Q9H0K1); experiment: Enzymatic activity assay SIK2, RapidFire mass spectrometry (phosphorylation of CHK-peptide); settings: RapidFire MS, inhibition of SIK2; read-out: SIK2 RF IC50
Procedure: as §1
as §2, with “Only one phosphorylation is observed under the assay conditions. 60 nl of each compound dilution series (12 point; dilution factor 3, generally 30 μM to 170 pM) in DMSO were transferred by acoustic dispensing to the assay plate and 30 min pre-incubated (ambient temperature) after the addition of 5 μl SIK1 (5 nM) resp.” left out, “1936529-65-5).” for “1936529-65-5). The results of the assay are expressed in half-maximal inhibitory concentrations (IC50s) and are summarized below in Table 1.”
as §3, §4, §5, §6

SIK1 = SIK1 (Homo sapiens, UniProt P57059); experiment: Enzymatic activity assay SIK1, RapidFire mass spectrometry (phosphorylation of CHK-peptide); settings: RapidFire MS, inhibition of SIK1; read-out: SIK1 RF IC50
Procedure: as §1, §2, §3, §4, §5, §6

Sequence of SIK2 (Q9H0K1 whole entry): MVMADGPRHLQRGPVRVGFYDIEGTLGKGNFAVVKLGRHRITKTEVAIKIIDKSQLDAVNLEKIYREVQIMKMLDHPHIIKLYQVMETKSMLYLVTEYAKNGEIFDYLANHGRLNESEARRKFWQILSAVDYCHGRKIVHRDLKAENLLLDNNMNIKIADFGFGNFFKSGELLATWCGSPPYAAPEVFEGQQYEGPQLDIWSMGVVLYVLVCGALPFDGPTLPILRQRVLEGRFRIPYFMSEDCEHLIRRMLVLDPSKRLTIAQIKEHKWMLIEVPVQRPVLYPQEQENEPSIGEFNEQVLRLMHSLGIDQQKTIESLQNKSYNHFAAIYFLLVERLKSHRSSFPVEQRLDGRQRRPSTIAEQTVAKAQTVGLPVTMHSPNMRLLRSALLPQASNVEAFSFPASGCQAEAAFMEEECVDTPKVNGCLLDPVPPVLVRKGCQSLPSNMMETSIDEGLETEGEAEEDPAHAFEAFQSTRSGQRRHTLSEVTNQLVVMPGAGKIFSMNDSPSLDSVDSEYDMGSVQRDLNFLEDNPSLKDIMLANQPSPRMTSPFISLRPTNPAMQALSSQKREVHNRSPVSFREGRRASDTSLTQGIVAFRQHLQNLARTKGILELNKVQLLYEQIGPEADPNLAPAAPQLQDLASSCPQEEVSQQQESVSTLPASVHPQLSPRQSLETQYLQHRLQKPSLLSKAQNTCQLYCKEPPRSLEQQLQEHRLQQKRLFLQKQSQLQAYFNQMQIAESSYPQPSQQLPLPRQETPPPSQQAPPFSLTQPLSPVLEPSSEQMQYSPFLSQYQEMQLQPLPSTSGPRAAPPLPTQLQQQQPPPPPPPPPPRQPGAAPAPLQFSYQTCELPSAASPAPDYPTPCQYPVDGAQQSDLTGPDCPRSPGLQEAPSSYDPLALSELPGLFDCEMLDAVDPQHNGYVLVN
Sequence of SIK1 (P57059 whole entry): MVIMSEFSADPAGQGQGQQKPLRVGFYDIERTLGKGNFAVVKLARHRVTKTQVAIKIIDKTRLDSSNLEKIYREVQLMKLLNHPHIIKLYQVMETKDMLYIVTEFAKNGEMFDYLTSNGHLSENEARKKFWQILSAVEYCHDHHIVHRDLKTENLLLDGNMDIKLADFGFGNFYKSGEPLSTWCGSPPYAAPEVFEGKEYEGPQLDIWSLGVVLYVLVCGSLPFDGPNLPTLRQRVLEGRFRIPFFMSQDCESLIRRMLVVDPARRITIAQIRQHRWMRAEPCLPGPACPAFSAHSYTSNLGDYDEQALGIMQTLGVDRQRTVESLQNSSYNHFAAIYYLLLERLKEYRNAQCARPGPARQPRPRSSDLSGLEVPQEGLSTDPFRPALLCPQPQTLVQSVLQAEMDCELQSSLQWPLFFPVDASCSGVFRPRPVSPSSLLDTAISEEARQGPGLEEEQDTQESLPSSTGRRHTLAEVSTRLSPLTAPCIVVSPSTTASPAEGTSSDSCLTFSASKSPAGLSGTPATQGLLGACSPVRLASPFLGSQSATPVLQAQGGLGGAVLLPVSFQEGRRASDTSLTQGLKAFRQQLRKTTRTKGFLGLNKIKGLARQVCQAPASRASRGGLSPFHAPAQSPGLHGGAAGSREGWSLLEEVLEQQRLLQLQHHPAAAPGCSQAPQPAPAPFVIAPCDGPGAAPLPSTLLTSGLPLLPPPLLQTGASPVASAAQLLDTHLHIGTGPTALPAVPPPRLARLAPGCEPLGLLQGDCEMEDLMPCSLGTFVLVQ
Sequence of SIK3 (Q9Y2K2 whole entry): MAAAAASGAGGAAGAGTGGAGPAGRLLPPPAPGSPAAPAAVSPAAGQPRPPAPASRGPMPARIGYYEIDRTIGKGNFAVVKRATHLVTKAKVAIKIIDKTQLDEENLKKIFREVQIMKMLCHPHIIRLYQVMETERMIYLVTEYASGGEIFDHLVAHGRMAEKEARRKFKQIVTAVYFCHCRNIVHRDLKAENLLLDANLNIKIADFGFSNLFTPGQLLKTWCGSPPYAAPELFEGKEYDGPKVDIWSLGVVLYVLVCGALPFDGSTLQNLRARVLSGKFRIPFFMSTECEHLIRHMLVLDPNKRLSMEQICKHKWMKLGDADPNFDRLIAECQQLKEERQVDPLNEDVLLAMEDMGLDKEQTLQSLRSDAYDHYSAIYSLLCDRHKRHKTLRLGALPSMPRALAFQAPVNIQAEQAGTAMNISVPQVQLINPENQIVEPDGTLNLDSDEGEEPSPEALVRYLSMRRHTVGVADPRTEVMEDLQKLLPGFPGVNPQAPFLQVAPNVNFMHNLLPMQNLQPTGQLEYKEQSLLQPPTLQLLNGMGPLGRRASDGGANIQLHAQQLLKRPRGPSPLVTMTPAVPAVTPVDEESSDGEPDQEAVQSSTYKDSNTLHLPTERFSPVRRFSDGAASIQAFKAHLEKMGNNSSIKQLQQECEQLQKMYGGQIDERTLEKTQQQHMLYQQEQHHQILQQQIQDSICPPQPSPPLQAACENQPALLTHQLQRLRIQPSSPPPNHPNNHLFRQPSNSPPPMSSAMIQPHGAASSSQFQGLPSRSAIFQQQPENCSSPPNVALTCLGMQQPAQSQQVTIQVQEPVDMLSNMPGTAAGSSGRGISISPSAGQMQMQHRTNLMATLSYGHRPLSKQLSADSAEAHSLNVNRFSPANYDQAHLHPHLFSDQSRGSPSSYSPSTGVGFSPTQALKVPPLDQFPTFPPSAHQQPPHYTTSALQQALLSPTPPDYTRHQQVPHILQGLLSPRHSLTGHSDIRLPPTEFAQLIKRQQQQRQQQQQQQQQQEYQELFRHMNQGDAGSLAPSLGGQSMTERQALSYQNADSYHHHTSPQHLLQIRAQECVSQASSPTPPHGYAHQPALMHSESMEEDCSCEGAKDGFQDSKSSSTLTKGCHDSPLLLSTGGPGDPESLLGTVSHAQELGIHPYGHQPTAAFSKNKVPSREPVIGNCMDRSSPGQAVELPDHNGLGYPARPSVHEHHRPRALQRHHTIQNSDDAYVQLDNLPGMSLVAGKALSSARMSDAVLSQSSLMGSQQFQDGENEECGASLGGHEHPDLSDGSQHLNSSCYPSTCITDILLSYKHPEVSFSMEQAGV

IC50 (SIK3) [nM] | IC50 (SIK2) [nM] | IC50 (SIK1) [nM] | Structure (SMILES)
19.4 | 25.1 | 41 | Cc1cc(C#N)nn1-c1nc(-n2cnc3cc(Nc4cccn(C)c4=O)ccc32)ccc1C(C)O (stereo not drawn) [Example 333, 1-[3-(1-hydroxyethyl)-6-[5-[(2-keto-1-methyl-3-pyridyl)amino]benzimidazol-1-yl]-2-pyridyl]-5-methyl-pyrazole-3-carbonitrile]
4.2 | 10.4 | 1360 | Cc1ccc(Nc2ccc3c(c2)ncn3-c2ccc(C(C)O)c(-c3nc(CC(F)(F)F)nn3C)n2)nn1 (stereo not drawn) [Example 401, 1-[6-[5-[(6-methylpyridazin-3-yl)amino]benzimidazol-1-yl]-2-[2-methyl-5-(2,2,2-trifluoroethyl)-1,2,4-triazol-3-yl]-3-pyridyl]ethanol]
10.1 | 36 | 1520 | Cc1ccc(Nc2ccc3c(c2)ncn3-c2ccc(C(C)O)c(C(=O)NCC(F)(F)F)n2)nn1 (stereo not drawn) [Example 124, 3-(1-Hydroxyethyl)-6-[5-[(6-methylpyridazin-3-yl)amino]benzimidazol-1-yl]-N-(2,2,2-trifluoroethyl)pyridine-2-carboxamide; formic acid]
12.8 | 41.9 | 2150 | COc1cc(C)n(-c2nc(-n3cnc4cc(Nc5ccc(C)nn5)ccc43)ccc2CO)n1 [Example 158, [2-(3-methoxy-5-methyl-pyrazol-1-yl)-6-[5-[(6-methylpyridazin-3-yl)amino]benzimidazol-1-yl]-3-pyridyl]methanol]
1.8 | 1.5 | 2 | Cc1cnc(Nc2ccc3c(c2)ncn3-c2ccc(C(C)O)c(-n3nc(C#N)cc3C)n2)nc1 (stereo not drawn) [Example 83, 1-[3-(1-Hydroxyethyl)-6-[5-[(5-methylpyrimidin-2-yl)amino]benzimidazol-1-yl]-2-pyridyl]-5-methyl-pyrazole-3-carbonitrile]
0.4 | 0.3 | 63 | Cc1ccc(Nc2ccc3c(c2)ncn3-c2ccc([C@@H](C)O)c(-c3cn(CC(F)(F)F)nc3C)n2)nn1 [Example 251, (1R)-1-[6-[5-[(6-Methylpyridazin-3-yl)amino]benzimidazol-1-yl]-2-[3-methyl-1-(2,2,2-trifluoroethyl)pyrazol-4-yl]-3-pyridyl]ethanol]
14.8 | 6.2 | 10 | Cc1ccc(Nc2cc3ncn(-c4ccc(C(C)O)c(-n5nc(C#N)cc5C)n4)c3cc2OCCN2CCOCC2)cn1 (stereo not drawn) [Example 297, 1-[3-(1-hydroxyethyl)-6-[5-[(6-methyl-3-pyridyl)amino]-6-(2-morpholinoethoxy)benzimidazol-1-yl]-2-pyridyl]-5-methyl-pyrazole-3-carbonitrile]
65 | 50.1 | 327 | Cc1cc(C(F)F)nn1-c1nc(-n2cnc3cc(N4C[C@H]5OCCN(C)[C@H]5C4)ccc32)ccc1CO [Example 318, [6-[5-[(4aS,7aR)-4-methyl-2,3,4a,5,7,7a-hexahydropyrrolo[3,4-b][1,4]oxazin-6-yl]benzimidazol-1-yl]-2-[3-(difluoromethyl)-5-methyl-pyrazol-1-yl]-3-pyridyl]methanol]
0.7 | 1.6 | 208 | Cc1ccc(Nc2ccc3c(c2)ncn3-c2ccc(C(C)O)c(-n3nc(C#N)cc3C(F)F)n2)nn1 (stereo not drawn) [Example 306, 5-(difluoromethyl)-1-[3-(1-hydroxyethyl)-6-[5-[(6-methylpyridazin-3-yl)amino]benzimidazol-1-yl]-2-pyridyl]pyrazole-3-carbonitrile]
339 | 215 | 589 | Cc1cc(C#N)nn1-c1nc(-n2cnc3cc(N4CCN(C5COC5)CC4)c(Br)cc32)ccc1C(C)O (stereo not drawn) [Example 130, 1-[6-[6-Bromo-5-[4-(oxetan-3-yl)piperazin-1-yl]benzimidazol-1-yl]-3-(1-hydroxyethyl)-2-pyridyl]-5-methyl-pyrazole-3-carbonitrile]
23.3 | 58.2 | 133 | Cc1cc(C#N)nn1-c1nc(-n2cnc3cc(-c4ccc5c(n4)C(=O)N(C)C5)ccc32)ccc1C(C)O (stereo not drawn) [Example 366, 1-[3-(1-hydroxyethyl)-6-[5-(6-methyl-7-oxo-5H-pyrrolo[3,4-b]pyridin-2-yl)benzimidazol-1-yl]-2-pyridyl]-5-methyl-pyrazole-3-carbonitrile]
2 | 4.5 | 23 | Cc1ncc(Nc2cc3ncn(-c4ccc([C@H](C)O)c(-n5nc(C#N)cc5C)n4)c3cc2F)cc1F [Example 391, 1-[6-[6-fluoro-5-[(5-fluoro-6-methyl-3-pyridyl)amino]benzimidazol-1-yl]-3-[(1S)-1-hydroxyethyl]-2-pyridyl]-5-methyl-pyrazole-3-carbonitrile]
7.1 | 36.4 | 2770 | Cc1ccc(Nc2ccc3c(c2)ncn3-c2ccc(C(C)O)c(-c3cncc(C#N)c3)n2)nn1 (stereo not drawn) [Example 118, 5-[3-(1-Hydroxyethyl)-6-[5-[(6-methylpyridazin-3-yl)amino]benzimidazol-1-yl]-2-pyridyl]pyridine-3-carbonitrile; formic acid]
7.9 | 42.3 | 2320 | Cc1ccc(Nc2ccc3c(c2)ncn3-c2ccc(C(C)O)c(N3CCOC(C#N)C3)n2)nn1 (stereo not drawn) [Example 360, 4-[3-(1-hydroxyethyl)-6-[5-[(6-methylpyridazin-3-yl)amino]benzimidazol-1-yl]-2-pyridyl]morpholine-2-carbonitrile]
4.8 | 8.3 | 1200 | Cc1cc(C(F)F)nn1-c1nc(-n2cnc3cc(Nc4ccc(C5(C)OCCO5)nn4)c(F)cc32)ccc1C(C)O (stereo not drawn) [Example 337, 1-[2-[3-(difluoromethyl)-5-methyl-pyrazol-1-yl]-6-[6-fluoro-5-[[6-(2-methyl-1,3-dioxolan-2-yl)pyridazin-3-yl]amino]benzimidazol-1-yl]-3-pyridyl]ethanol]
1.5 | 1.2 | 115 | Cc1ccc(Nc2ccc3c(c2)ncn3-c2ccc(C(C)O)c(-c3cnn(CC4CCC4)c3C)n2)nn1 (stereo not drawn) [Example 273, 1-[2-[1-(Cyclobutylmethyl)-5-methyl-pyrazol-4-yl]-6-[5-[(6-methylpyridazin-3-yl)amino]benzimidazol-1-yl]-3-pyridyl]ethanol; formic acid]
1.4 | 1 | 133 | Cc1ccc(Nc2cc3ncn(-c4ccc(C(C)O)c(-c5cc(OC(F)F)ncc5C)n4)c3cc2F)nn1 (stereo not drawn) [Example 346, 1-[2-[2-(difluoromethoxy)-5-methyl-4-pyridyl]-6-[6-fluoro-5-[(6-methylpyridazin-3-yl)amino]benzimidazol-1-yl]-3-pyridyl]ethanol]
335 | 1570 | > 30000 | Cc1ccc(Nc2ccc3c(c2)ncn3-c2ccc(C(C)O)c(-c3cc(C(F)(F)F)n[nH]c3=O)n2)nn1 (stereo not drawn) [Example 223, 5-[3-(1-Hydroxyethyl)-6-[5-[(6-methylpyridazin-3-yl)amino]benzimidazol-1-yl]-2-pyridyl]-3-(trifluoromethyl)-1H-pyridazin-6-one; formic acid]
